Test results as given in patent publication US20030216361A1, “Therapeutic compositions effective against gram positive bacteria” (priority 2000, published 2003).
Values after ≈ are worked out from the molar mass of the structure shown. Values joined by “and” are separate entries in the source; they are usually repeats but may differ in a detail not shown here. Equal values may be shown once. Read-outs that look alike come from different tables or passages of the source. Marks after values point to notes of the source that are not given here.

Experiments:
[1] = tested on: Neisseria gonorrhoeae ATCC 49226; experiment: Disk diffusion susceptibility testing
[2] = tested on: Cryptococcus neoformans ATCC 90112; experiment: Disk diffusion susceptibility testing
[3] = tested on: Staphylococcus aureus ATCC 29213; experiment: Broth macrodilution MIC and MBC, reference strains; conditions: ATCC29213
[4] = tested on: Methicillin-resistant Staphylococcus aureus, clinical isolate; experiment: Effect of pH on broth macrodilution MICs; assay type: cell-based
[5] = tested on: Vancomycin-resistant E. faecium; experiment: Broth macrodilution MIC and MBC, clinical isolates; conditions: 2 strains
[6] = tested on: S. pneumoniae 6303; experiment: Time-kill studies; assay type: cell-based, Streptococcus pneumoniae
Text: This experiment illustrates a study of the time required (time-kill studies) for anti-microbial action of 3β-acetoxy-17β-(L-prolyl) amino-5α-androstane with certain gram positive bacteria.
Overnight cultures of Staphylococcus aureus 29213, Enterococcus faecalis 29212 and S. pneumoniae 6303 in MHII broth were inoculated into the same medium containing multiples of the broth macrodilution MIC of 3β-acetoxy-17β-(L-prolyl) amino-5α-androstane, or an equivalent volume of MeOH. Cultures were shaken at 37° C., and aliquots were aseptically removed at various times for dilution plating. Standard errors of the means were calculated from at least two experiments. The detection limit in these experiments was 10 CFU/ml.

[7] = tested on: Klebsiella pneumoniae Presque Isle 344; experiment: Disk diffusion susceptibility testing
[8] = tested on: Rhodococcus spp.; experiment: Broth macrodilution MIC and MBC, clinical isolates
[9] = tested on: Bacillus subtilis; experiment: Broth macrodilution MIC and MBC, clinical isolates; conditions: 4 strains
[10] = tested on: B. cereus; experiment: Broth macrodilution MIC and MBC, clinical isolates; conditions: 5 strains
[11] = tested on: E. faecalis ATCC 29212; experiment: Effect of pH on broth macrodilution MICs; assay type: cell-based, Enterococcus faecalis
[12] = tested on: ATCC 14154, mouse virulent Staphylococcus aureus; experiment: Mouse model of topical Gram positive (Staphylococcus aureus) infection, infected suture; assay type: in vivo; conditions: mice; for Total colonies (number of Staph colonies per suture), individual animals: animals 1-10; for Total colonies (number of Staph colonies per suture), Ave.: average of 10 animals
Description: The model, as described in J. Gisby and J. Bryant, Antimicrobial Agents and Chemotherapy, February 2000, Vol. 44, No. 2, p 255-260, was used.
Fifty HSD:ICR male mice weighing 12-14 grams were ordered and allowed to acclimate 7 days. Mice were allocated to 5 groups of 10 animals each.
Group 1: infected suture placed, no treatment
Group 2: topical GRPB, 12.5 mg/kg BID×7 days
Group 3: topical GRPB, 25 mg/kg BID×7 days
Group 4: clean suture, no treatment
Group 5: enrofloxacin (Baytril) 10 mg/kg SQ SID×7 days
ATCC 14154, mouse virulent Staphylococcus aureus was grown in BHI broth overnight (12 hours) at 38 degrees C. Forty-five minutes prior to surgery, silk suture (2-0 size, 1 cm lengths w/swaged-on blunt needle) was soaked in the broth for 30 minutes, excess liquid was then removed by blotting with filter paper.
Mice were anesthetized with a ketamine (40 mg/kg), midazolam (2 mg/kg), and butorphanol (0.1 mg/kg) as a single IP injection.
The skin on the back of the mouse was prepared for aseptic surgery by clipping, cleansing with iodine scrub, and rinsing with alcohol. Mice were kept warm during surgery on a recirculating hot water blanket.
The suture was placed just under the skin on the dorsum of the animal using sterile instruments. The suture was knotted in the subcutaneous tissue to keep it in place. A half-thickness skin wound was made over the suture using the side of an 18 gauge needle as a scalpel.
Mice were allowed to recover in the home cage.
GRPB-10-15A was reconstituted as directed, using a minimal amount of methanol followed by dilution to required volume in sterile physiologic saline.
Injections were given using insulin syringes with 30 gauge needles. Topical administration was placed over the wound site. The mice were first treated 4 hours after surgery and were treated once or twice daily thereafter.
After 7 days of treatment animals were euthanized with IP pentobarbital euthanasia solution. The suture lengths were removed and placed in 2 mls phosphate buffered saline. Serial dilutions were performed and results reported as actual counts (number of Staph colonies per suture).

[13] = tested on: Paenibacillus alvei; experiment: Broth macrodilution MIC and MBC, clinical isolates; conditions: clinical isolate, 1 strain
[14] = tested on: Bacillus subtilis Presque Isle 620; experiment: Frequency of occurrence of spontaneous resistant mutants; assay type: cell-based; conditions: 24 h
Description: (§1) Overnight cultures of S. aureus 29213, E. faecalis 29212, S. pneumoniae 6303 and Bacillus subtilis 620 were diluted to an OD625nm=0.08 0.1 ml of each preparation was spread onto agar plates containing four or eight times the broth macrodilution MIC of the androstane derivative. The starting inoculum for each organism was also diluted and plated onto drug-free plates for determination of CFU/ml. After a 24 h incubation at the appropriate temperature, the number of bacterial colonies on drug-supplemented agar was counted. The frequency of occurrence of spontaneous mutants was calculated by dividing the number of colonies on drug containing plates by the number of colonies in the inoculum. When no colonies were visualized on drug-containing plates, the calculation was (<) 1 colony divided by the number of colonies in the inoculum.

[15] = tested on: Streptococcus pneumoniae ATCC 6303; experiment: as above; assay type: cell-based; conditions: 24 h
Description: as §1

[16] = tested on: Enterococcus faecalis ATCC 29212; experiment: as above; assay type: cell-based; conditions: 24 h
Description: as §1

[17] = tested on: Staphylococcus aureus ATCC 29213; experiment: as above; assay type: cell-based; conditions: 24 h
Description: as §1

[18] = pH 6, range of 3 determinations
[19] = pH 7, range of 3 determinations
[20] = pH 8, range of 3 determinations
[21] = Group 2 low GRPB, topical 12.5 mg/kg BID×7 days
[22] = Group 3 high GRPB, topical 25 mg/kg BID×7 days
[23] = agar with 4X broth macrodilution MIC
[24] = agar with 8X broth macrodilution MIC

CC(=O)O[C@H]1CC[C@@]2(C)[C@@H](CC[C@@H]3[C@@H]2CC[C@]2(C)[C@@H](NC(=O)[C@@H]4CCCN4)CC[C@@H]32)C1
MIC [1]: >100 μg/disk
MIC [2]: >100 μg/disk
MBC [3]: 64 µg/mL (≈ 149 µM)
MIC [3]: 4 µg/mL (≈ 9.29 µM)
MIC Range [4, 18]: 16 µg/mL (≈ 37.2 µM)
MIC Range [4, 19]: 8 µg/mL (≈ 18.6 µM)
MIC Range [4, 20]: 4 µg/mL (≈ 9.29 µM)
MBC Range [5]: 16 to 64 µg/mL
MIC Range [5]: 8 to 16 µg/mL
Killing (concentration dependence) [6]: concentration-dependent
Killing (time dependence) [6]: time-dependent
time to 99.9% kill ([6]; at the MIC): 6 h
survivors after 24 h ([6]; one times the MIC): no survivors
time to 99.9% kill ([6]; two times the MIC): 2 h
survivors after 24 h ([6]; two times the MIC): no survivors
MIC [7]: >100 μg/disk
MIC50 ([8]; Rhodococcus): 8 µg/mL (≈ 18.6 µM)
MIC90 ([8]; Rhodococcus): 16 µg/mL (≈ 37.2 µM)
share of strains with MBC/MIC ratios ≦2 ([8]; Rhodococcus spp.): 58%
MBC ([8]; Rhodococcus, read-out: MBC 50%): 16 µg/mL (≈ 37.2 µM)
MBC ([8]; Rhodococcus, read-out: MBC 90%): 32 µg/mL (≈ 74.3 µM)
MIC Range ([8]; clinical isolates, 19 strains, read after 48 h): 4 to 64 µg/mL
MIC Range [9]: 8 µg/mL (≈ 18.6 µM)
MBC Range [10]: >64 µg/mL
MIC Range [10]: 32 µg/mL (≈ 74.3 µM)
MIC Range [11, 18]: 32 µg/mL (≈ 74.3 µM)
MIC Range [11, 19]: 8 to 16 µg/mL
MIC Range [11, 20]: 4 to 8 µg/mL
Total colonies (number of Staph colonies per suture), individual animals [12, 21]: 227 colonies per suture and 1993 colonies per suture and 832 colonies per suture and 317 colonies per suture and 1174 colonies per suture and 399 colonies per suture and 2523 colonies per suture and 968 colonies per suture and 739 colonies per suture and 1109 colonies per suture
Total colonies (number of Staph colonies per suture), Ave. [12, 21]: 1028 colonies per suture
Total colonies (number of Staph colonies per suture), individual animals [12, 22]: 890* colonies per suture and 328 colonies per suture and 483 colonies per suture and 289 colonies per suture and 626 colonies per suture and 572 colonies per suture and 456 colonies per suture and 344 colonies per suture and 565 colonies per suture and 362 colonies per suture
Total colonies (number of Staph colonies per suture), Ave. [12, 22]: 492 colonies per suture
MBC Range [13]: >64 µg/mL
MIC Range [13]: 16 µg/mL (≈ 37.2 µM)
Frequency at 4X MIC [14, 23]: <2.2 × 10^−7
Frequency at 8X MIC [14, 24]: <2.2 × 10^−7
Frequency at 4X MIC [15, 23]: <3.3 × 10^−6
Frequency at 8X MIC [15, 24]: <3.3 × 10^−6
Frequency at 4X MIC [16, 23]: 8.9 × 10^−7
Frequency at 8X MIC [16, 24]: <1 × 10^−8
Frequency at 4X MIC [17, 23]: 1.2 × 10^−6
Frequency at 8X MIC [17, 24]: <6 × 10^−9
